According to patent US20090306386A1, “Plant Extract Obtained by an Extraction Method by Means of Solvents of Plant Origin” (priority 2005, published 2009):

Test system: xanthine/xanthine oxidase
Assay: antioxidant activity, xanthine/xanthine oxidase test
Assay type: biochemical
Conditions: modified method of Rice Evans et al. and Masaki et al., n=10
Description: The antioxidant activity of the turmeric extract obtained with solvent No. 2 (d-limonene) were studied using the xanthine/xanthine oxidase test according to the modified method of Rice Evans et al. (Techniques in free radical research, 1991, Elsevier, Paris) and Masaki et al. (Antioxygen scavenging activity of plant extracts, Biol. Pharm. Bull., 1995, 18 (1), 162-166).

## Oc1ncnc2[nH]ncc12 [allopurinol]
  antioxidant activity IC50: 0.06%
